{"source": "patent US12071624B2", "about": "“Antisense oligonucleotide targeting ARL4C molecule, and nucleic acid drug using antisense oligonucleotide” (OSAKA UNIVERSITY, priority 2018, dated 2024)", "key": {"A549/Luc cells": {"test_system": "A549/Luc cells", "assay": "Xenograft orthotopic transplantation model using lung cancer cells", "format": "in vivo, mouse", "protocol": "Eight-week-old male nude mice (BALB/cAJcl-nu/nu, CLEA Japan, Inc.) were intraperitoneally injected with medetomidine (0.75 mg/kg), midazolam (4 mg/kg), and butorphanol (5 mg/kg) so as to be anesthetized. The xenograft orthotopic transplantation model was formed by transplanting human lung cancer cells into the left lungs of mice in the following order. A549/Luc cells (approximately 2×10^6 cells) were suspended in 10 μl of PBS (phosphate buffered saline) and 10 μl of Matrigel (BD Biosciences, San Jose, CA, USA), and a 29 G needle attached to a 0.5 ml insulin syringe (BD Biosciences, San Jose, CA, USA) was used to inject the same through the intercostal space to a depth of 2 mm in the left lung. The incision in the skin was closed with a 5-0 polypropylene suture, and the mice were rested on a warm carpet until they were fully recovered.\nOne week after the tumor transplantation, tumor establishment was confirmed using an IVIS imaging system (Xenogen Corp., Alameda, CA, USA). In the in-vivo imaging, 100 μl of VivoGlo luciferin (30 mg/ml) was administered via the tail vein, and bioluminescence imaging was recorded 5 minutes after the administration. Mice with established tumors were then divided into two groups, a control ASO inhalation group (n=7) and an ARL4C ASO inhalation group (n=9) in such a manner that the groups had identical IVIS signal intensities. […] When 21 days elapsed after the tumor transplantation, tumor sizes were determined using the IVIS imaging system, and then the mice were euthanized for histological analysis. […]\nIn an experiment in a xenograft orthotopic transplantation model using lung cancer cells, A549/Luc cells were transplanted into the left lung (day 0), and transbronchial administration of control ASO and ARL4C ASO-1316 was carried out when 7, 11 and 15 days had elapsed after the transplantation. […] In addition, when 7 and 21 days had elapsed since the transplantation, luminescence intensities of luciferase emitted from tumors in the left lungs in the mice were measured using software of IVIS/Kodak; the results are shown in the right part of (a) of FIG. 11. […]"}, "S2-CP8/Luc cells": {"test_system": "S2-CP8/Luc cells", "assay": "Xenograft orthotopic transplantation model using pancreatic cancer cells", "format": "in vivo, mouse", "settings": "twice a week from 3 days after transplantation, 28 days after transplantation", "protocol": "Assay based on the xenograft orthotopic transplantation model using pancreatic cancer cells was performed by arranging the method described in the literature (Kim M P. et. al., Nat Protoc 2009; 4: 1670-80). Specifically, S2-CP8/Luc cells (5×10^5 cells) were suspended in 100 μl of Hanks' Balanced Salt Solution (HBSS) containing 50% matrigel, and were orthotopically transplanted in the central part of the pancreas using a 27 G needle. Three days after transplantation, the mice were divided into two groups, a control ASO-administered group (n=6) and an ARL4C ASO-administered group (n=7). […] Tumors were quantified once a week using the IVIS imaging system (Xenogen Corp.). In the in-vivo imaging, 100 μl of VivoGlo luciferin (30 mg/ml) was intraperitoneally administered, and bioluminescence images were recorded eight minutes after the administration. The quantification of the tumors was carried out in the following manner: a region of interest (ROI) was selected, and a radiance value of the same was measured using Living Image 4.3.1 Software (Caliper Life Science). The mice were euthanized 28 days after the transplantation, tumor weights and the number of mesenteric lymph nodes (lymph nodes of 1 mm or larger in diameter) were determined, and histological analysis was carried out. […]"}}}
{"substance": "ASO-1316: 15-mer AmNA/phosphorothioate ASO targeting ARL4C, base sequence SEQ ID NO: 1 gcatacctcaggtaa; Table 1 SEQ ID NO 13 (antisense GCATACCTCAGGTAA; AmNA and phosphorothioate modified, pattern not given here)", "values": [{"measurement": "proliferation of A549/Luc cells in left lung (luciferase luminescence intensity)", "setting": "A549/Luc cells; 200 μg/body transbronchially on days 7, 11 and 15, days 7 and 21", "result": "inhibited A549/Luc cells from proliferating"}, {"measurement": "Ki-67-positive cells in left lung tumor", "setting": "A549/Luc cells; day 21", "result": "Ki-67-positive cells decreased in number"}, {"measurement": "expression of ARL4C in left lung tumor (immunostaining)", "setting": "A549/Luc cells; day 21", "result": "decreased expression of ARL4C"}, {"measurement": "cancer metastasis to mesenteric lymph nodes", "setting": "S2-CP8/Luc cells", "result": "could suppress cancer metastasis to mesenteric lymph nodes"}]}
